# According to patent US20050090485A1, “7-Arylsulfonamido-2,3,4,5-tetrahydro-1h-benzo'diazepine derivatives with 5ht6 receptor affinity for the reatment of cns disorders” (priority 2002, published 2005):
# Tests used:
# [1] = biological target: T1, human cloned 5-HT6 receptors (Homo sapiens, UniProt P50406); assay: 5-HT6 receptor affinity, procedures outlined in WO98/27081; type: binding; settings: read-out: pKi values at human cloned 5-HT6 receptors (converted)
# T1 construct: expressed in transfected cells
# Text: Compounds can be tested following the procedures outlined in WO98/27081.
# T1 sequence (P50406 whole entry): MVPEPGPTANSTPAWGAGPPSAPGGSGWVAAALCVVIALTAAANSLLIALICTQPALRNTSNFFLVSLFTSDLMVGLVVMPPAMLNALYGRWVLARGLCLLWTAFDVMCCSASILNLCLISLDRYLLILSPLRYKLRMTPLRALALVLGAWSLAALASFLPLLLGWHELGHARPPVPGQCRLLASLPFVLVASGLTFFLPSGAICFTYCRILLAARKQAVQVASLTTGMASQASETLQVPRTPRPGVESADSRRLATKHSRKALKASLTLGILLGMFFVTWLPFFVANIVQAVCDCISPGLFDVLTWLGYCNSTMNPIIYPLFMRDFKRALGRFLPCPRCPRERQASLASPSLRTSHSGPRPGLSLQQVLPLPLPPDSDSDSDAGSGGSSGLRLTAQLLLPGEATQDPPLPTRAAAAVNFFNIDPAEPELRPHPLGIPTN
Ki [1] [nM],melting point [°C],Compound
< 3.16,–,"O=S(=O)(Nc1ccc2c(c1)CCNCC2)c1ccc(Br)cc1OC(F)(F)F [Example E6, 7-(4-Bromo-2-trifuoromethoxy)phenylsulfonamido-2,3,4,5-tetrahydro-1H-benzo[d]azepine]"
–,210 to 211,"Cl.O=S(=O)(Nc1ccc2c(c1)CCNCC2)c1ccc(Cl)cc1OC(F)(F)F [Example E12, 7-(4-Chloro-2-trifluoromethoxy)phenylsulfonamido-2,3,4,5-tetrahydro-1H-benzo[d]azepine, hydrochloride]"
–,231 to 233,"Cl.O=S(=O)(Nc1ccc2c(c1)CCNCC2)c1ccc(Br)cc1OC(F)(F)F [Example E11, 7-(4Bromo-2-trifluoromethoxy)phenylsulfonamido-2,3,4,5-tetrahydro-1H-benzo[d]azepine, hydrochloride]"
< 3.16,–,"O=S(=O)(Nc1ccc2c(c1)CCNCC2)c1ccc(Cl)cc1OC(F)(F)F [Example E10, 7(4-Chloro-2-trifluoromethoxy)phenylsulfonamido-2,3,5-tetrahydro-1H-benzo[d]azepine]"
